From patent publication US5409946A, “Isoxazole, isothiazole and pyrazole compounds that enhance cognitive function” (Abbott Laboratories, priority 1993, dated 1995)
Where a name gives a salt, the structure may show the parent alone. Read-outs that look alike come from different tables or passages of the source. One block for each molecule: values may come before it.

Molecular target: neuronal nicotinic receptors
Assay: Displacement of [3H]-MCC or [3H]-cytisine from neuronal nicotinic receptors, whole rat brain membranes
Format: binding
Conditions: Table 1, read-out: Nicotinic Receptor Ki
Experimental: Binding of [^3 H]-methylcarbamylcholine ([^3 H]-MCC) or [^3 H]-cytisine ([^3 H]-CYT) to nicotinic receptors was accomplished using crude synaptic membrane preparations from whole rat brain (Snyder and Enna, Brain Research, 1975, 100:81). Washed membranes were stored at -80° C. prior to use. Frozen aliquots were slowly thawed and resuspended in 20 volumes of buffer (containing: 120 mM NaCl, 5 mM KCl, 2 mM MgCl2, 2 mM CaCl2 and 50 mM Tris-Cl, pH 7.4 @4° C). After centrifuging at 20,000 X g for 15 minutes, the pellets were resuspended in 30 volumes of buffer. Homogenate (containing 125-150 μg protein) was added to triplicate tubes containing concentrations of test compound and [^3 H]-MCC (3 nM) in a final volume of 500 μL. Samples were incubated for 60 minutes at 4° C., then rapidly filtered through Whatman GF/B filters presoaked in 0.5% polyethylimine using 3×4 mL of ice-cold buffer. Alternately, homogenate and test compound were incubated for 75 min with [^3 H]-CYT (1.3 nM), then rapidly filtered, as described above. The filters are counted in 4 mL of Ecolume® (ICN). […] IC50 values were determined with the ALLFIT nonlinear least squares curve-fitting program and IC50 values were converted to Ki values using the Cheng and Prusoff correction (Ki =IC50 /(1+[ligand]/Kd of ligand)). Alternately, data were expressed as a percentage of the total specific binding.

Structure (SMILES): Cc1cc([C@@H]2CCCN2C)[nH]n1 [Example 43, 3-methyl-5-(1-methyl-2(S)-pyrrolidinyl)-pyrazole hydrochloride]
- Ki: 228 nM

Structure (SMILES): CN1CCC[C@H]1c1cc(Br)no1 [Example 27, 3-Bromo-5-(1-methyl-2(S)-pyrrolidinyl)-isoxazole hydrochloride]
- Ki: 7.7 nM

Structure (SMILES): CCc1cc([C@H]2CCCN2)on1 [Example 17, 3-Ethyl-5-(2(R)-pyrrolidinyl)-isoxazole oxalate salt]
- Ki: 12 nM

Structure (SMILES): Cc1cc([C@H]2C[C@H](C)CN2C)on1 (relative stereo) [Example 24, 3-Methyl-5-(trans-1,4-dimethyl-2-pyrrolidinyl)-isoxazole oxalate salt]
- Ki: 24 nM

- Ki: 114 nM
Structure (SMILES): Cc1cc([C@H]2C[C@H](O)CN2C)on1 (relative stereo) [Example 21, 3-Methyl-5-(trans-4-hydroxy-1-methyl-2-pyrrolidinyl)-isoxazole oxalate salt]

Structure (SMILES): Cc1cc([C@H]2CCCN2C)on1 [Example 16, 3-Methyl-5-(1-methyl-2(R)-pyrrolidinyl)-isoxazole hydrochloride salt]
- Ki: 55 nM

Structure (SMILES): Cc1cc([C@H]2CCCCN2C)on1 [Example 39, 3-methyl-5-(1-methyl-2(R)-piperidinyl)-isoxazole hydrochloride]
- Ki: 357 nM

Structure (SMILES): CN1CCC[C@H]1c1cc(Cc2ccccc2)no1 [Example 8, 3-Benzyl-5-(1-methyl-2(S)-pyrrolidinyl)-isoxazole hydrochloride salt]
- Ki (hydrochloride salt): 13 nM

Structure (SMILES): CCc1cc([C@@H]2CCCN2)on1 [Example 3, 3-Ethyl-5-(2(S)-pyrrolidinyl)-isoxazole oxalate salt]
- Ki: 621 nM

Structure (SMILES): Cc1cc([C@@H]2C[C@@H](C)CN2C)on1 [Example 28d, trans-5-(1-methyl-4-methyl-2(S)-pyrrolidinyl)-3-methyl-isoxazole hydrochloride]
- Ki: 17.1 nM

Structure (SMILES): Cc1cc([C@@H]2CCCN2)on1 [Example 1, 3-Methyl-5-(2(S)-pyrrolidinyl)-isoxazole oxalate salt]
- Ki: 289 nM

Structure (SMILES): Cc1cc([C@H]2CC[C@H](C)N2C)on1 (relative stereo) [Example 25, 3-Methyl-5-(trans-1,5-dimethyl-2-pyrrolidinyl)-isoxazole oxalate salt]
- Ki: 289 nM

Structure (SMILES): COCc1cc([C@@H]2CCCN2C)on1 [Example 20, 3-Methoxymethyl-5-(1-methyl-2(S)-pyrrolidinyl)-isoxazole fumarate salt]
- Ki: 22 nM

Structure (SMILES): CCc1cc([C@@H]2CCCN2C)on1 [Example 12, 3-Ethyl-5-(1-methyl-2(S)-pyrrolidinyl)-isoxazole hydrochloride salt]
- Ki (hydrochloride salt): 7 nM

- Ki: 21 nM
Structure (SMILES): CCN1C[C@H](C)C[C@H]1c1cc(C)no1 [Example 28c, trans-5-(1-ethyl-4-methyl-2(S)-pyrrolidinyl)-3-methyl-isoxazole hydrochloride]

Structure (SMILES): Cc1cc([C@H]2CCCCN2)on1 [Example 38, 3-methyl-5-(2(R)-piperidinyl)-isoxazole hydrochloride]
- Ki: 386 nM

Structure (SMILES): Cc1cc([C@H]2CCCN2)sn1 [Example 19, 3-methyl-5-((2(R)-pyrrolidinyl)-isothiazole hydrochloride]
- Ki: 228 nM

Structure (SMILES): CN1CCC[C@H]1c1cc(C(F)(F)F)no1 [Example 32, 3-trifluoromethyl-5-(1-methyl-2(S)-pyrrolidinyl)-isoxazole, hydrochloride]
- Ki: 6.1 nM

Structure (SMILES): CCN1CCC[C@H]1c1cc(C)no1 [Example 13, 5-(1-Ethyl-2(S)-pyrrolidinyl)-3-methyl-isoxazole hydrochloride salt]
- Ki: 34 nM

Structure (SMILES): Cc1cc([C@H]2CCCN2)on1 [Example 15, 3-Methyl-5-(2(R)-pyrrolidinyl)-isoxazole benzoate salt]
- Ki: 7 nM

Structure (SMILES): Cc1cc([C@H]2CCCN2)on1 [Example 14]
- Ki: 10 nM

Structure (SMILES): Cc1cc([C@@H]2CCCCN2)on1 [Example 40, 3-methyl-5-(2(S)-piperidinyl)-isoxazole hydrochloride]
- Ki: 283 nM

Structure (SMILES): Cc1cc([C@@H]2CCCN2C)n(-c2ccccc2)n1 [Example 42, 3-methyl-5-(1-methyl-2(S)-pyrrolidinyl)-1-phenyl-pyrazole hydrochloride]
- Ki: 145 nM

Structure (SMILES): Cc1cc([C@H]2C[C@H](CF)CN2C)on1 (relative stereo) [Example 22, 3-Methyl-5-(trans-4-fluoromethyl-1-methyl-2-pyrrolidinyl)-isoxazole hydrochloride]
- Ki: 183 nM

Structure (SMILES): COc1cc([C@@H]2CCCN2C)on1 [Example 29, 5-(1-methyl-2(S)-pyrrolidinyl-3-methoxy-isoxazole hydrochloride]
- Ki: 62 nM

Structure (SMILES): CCc1c(C)noc1[C@@H]1CCCN1C [Example 37, 3-methyl-5-(1-methyl-2(S)-pyrrolidinyl)-4-ethyl-isoxazole hydrochloride]
- Ki: 105 nM

Structure (SMILES): CN1CCC[C@H]1c1cc(Cc2ccccc2)no1 [Example 7, 3-Benzyl-5-(1-methyl-2(S)-pyrrolidinyl)-isoxazole oxalate salt]
- Ki (oxalate salt): 18 nM

Structure (SMILES): CCCCc1cc([C@@H]2CCCN2C)on1 [Example 10, 3-n-Butyl-5-(1-methyl-2(S)-pyrrolidinyl)-isoxazole hydrochloride salt]
- Ki: 24 nM

- Ki: 77.6 nM
Structure (SMILES): Cc1noc([C@@H]2CCCN2C)c1Cc1ccccc1 [Example 36, 3-methyl-5-(1-methyl-2(S)-pyrrolidinyl)-4-(phenylmethyl-isoxazole hydrochloride]

Structure (SMILES): Cc1cc([C@@H]2CCN2C)on1 [Example 41, 3-methyl-5-(1-methyl-2(S)-azetidinyl)-isoxazole hydrochloride]
- Ki: 2.5 nM

Structure (SMILES): CCCc1cc([C@@H]2CCCN2C)on1 [Example 9, 5-(1-Methyl-2(S)-pyrrolidinyl)-3-propyl-isoxazole hyrochloride salt]
- Ki: 14 nM

Structure (SMILES): Cc1cc([C@@H]2CCCN2C)on1 [Example 11, 3-Methyl-5-(1-methyl-2(S)-pyrrolidinyl)-isoxazole hydrochloride salt]
- Ki (hydrochloride salt): 3 nM
